Laboratory results published in US9844595B2, “Composition comprising a complex of (+)-catechin and amino acid for the treatment and prevention of cancer” (VALORE, priority 2013, dated 2017).
Values joined by “and” are separate entries in the source; they are usually repeats but may differ in a detail not shown here. Identical values can stand only once. Like-named read-outs stand apart in the source and are kept apart here.

Tests used:
[1] = tested on: collagen of rat skin; experiment: Total incorporation and incorporation into collagen of 3H-proline in the skin; format: in vivo, Wistar rats; details: for increase in the level of incorporation: 100 mg/kg by gavage, vs control subgroup
Procedure: To do this, a study was carried out in vivo on a batch of 24 female Wistar rats weighing from 95 to 115 g, divided into two groups C and D, each of 12 rats. For each group, the radioactive 3H-hydroxyproline, the specific activity of which is 13.6 Ci/10-3 mol, was administered to all the animals by intraperitoneal injection of 3H-proline at a dose, relative to the weight of the individuals, of 1 mCi/kg, which represents an activity in terms of radioactive 3H-proline of 100 μCi/individual.
6 rats of each group received a treatment based on monomeric (+)-catechin by gavage in a proportion of 100 mg/kg for 5 days before sacrifice. […] The group C received monomeric (+)-catechin hydrochlorolysinate, while the group D received monomeric (+)-catechin ascorbolysinate.
In table 8, the level of incorporation is measured by the number of disintegrations of the radioactive 3H-hydroxyproline per minute (dpm) per mg of dry weight. The higher this number, the higher the concentration of 3H-hydroxyproline.
In this comparative example, a group E of 12 Wistar rats weighing from 95 to 115 g, in which radioactive 3H-hydroxyproline, the specific activity of which is 13.6 Ci/10-3 mol, was administered to all the individuals by intraperitoneal injection of 3H-proline at a dose, relative to the weight of the individuals, of 1 mCi/kg, which represents an activity in terms of radioactive 3H-proline of 100 μCi/individual.
6 rats of each group received a treatment based on pure monomeric (+)-catechin by gavage in a proportion of 100 mg/kg for 5 days before sacrifice.

[2] = tested on: gastric mucosa; experiment: Incidence of gastric ulcers and histamine level in the gastric mucosa in Mastomys; format: in vivo
Procedure: In this example, a sample of n=48 Mastomys are sensitized a first time by intraperitoneal injection of 3 μg of ovalbumin dissolved in 0.2 ml of saline solution containing 1 mg of aluminum hydroxide which brings about anti-immunoglobulin E (IgE) and G (IgG) antibodies. After 7 days, a second injection of 1 mg of ovalbumin in 0.01 ml of saline solution is given in the gastric mucosa at the level of the corpus of the anesthetized animals, which causes an ulcerated lesion at the actual site of the injection.
The 48 rats are divided up into three groups: one of 24 and two of 12 individuals. The first group of 24 individuals (G1) received a placebo (concentrated NaCl solution at 0.15 M).
The histamine level is measured for the G1, G2 and G3 groups on the basis of a sample of n=12 individuals.

[3] = tested on: monoclonal immunoglobulins (IgM); experiment: Treatment of a patient with lymphoplasmocytic lymphoma (Waldenström macroglobulinemia type): IgM assay; format: in vivo, human; details: one patient
Procedure: In the first patient a lymphoplasmocytic lymphoma (of Waldenström macroglobulinemia type) was detected during a post-operative blood test on day Do. The diagnosis is based on the electrophoretic detection of a monoclonal peak of immunoglobulins (IgM). This diagnosis was reconfirmed and the peak was assayed during a second analysis using the same detection by electrophoresis.
These immunoglobulins are found at a high concentration in the blood and in the urine. They therefore constitute real tumor markers. The assaying thereof gives an account of the number of sick cells and the extent of the disease and, consequently, makes it possible to monitor its progression under treatment.
Successive blood tests gave the following data for the IgM assay (in mg per 100 ml of plasma): […]

[4] = tested on: clear cell renal carcinoma; experiment: Treatment of a patient with renal adenocarcinoma; format: in vivo, human; details: DT+19 months, reconfirmed DT+23 months; one patient, 500 mg per day orally, after nephrectomy, dissections and radiotherapy
Procedure: In the second patient, a left subclavicular cervical adenopathy was first of all detected on day Do. Next, 2 weeks later, a left renal adenocarcinoma was detected for this patient, which was followed by a nephrectomy of the left kidney 3 days after the detection of the adenocarcinoma in this kidney.
Thereafter, on day D0+3 months, a left cervical lymph node dissection is performed on the patient. This procedure was followed by a series of 15 radiotherapy sessions.
Starting from day D0+15 months (that is to say on day DT), the patient was orally administered a tablet of 500 mg of (+)-catechin hydrochlorolysinate per day.
On day DT+15 months, the appearance of a pathological mediastinal adenopathy (45 cm^3 in volume) was observed and required a mediastinal lymph node dissection followed by a pulmonary examination on day DT+17 months.

[5] = for Δct measured between the IV and PO data, free (+)-catechin / Δct measured between the IV and PO data, total (+)-catechin: PO vs IV; for plasma concentration (cc) of the free monomeric (+)-catechin / plasma concentration (cc) of the total monomeric (+)-catechin: 25 mg/kg (+)-catechin equivalent
Procedure: The experimental results described below were obtained on the basis of a study carried out in healthy human beings and in healthy Wistar rats weighing approximately 250 grams.
An acclimation period was observed before beginning the experiments.
The rats received an administration per os of a volume of 5 ml of a solution of active product.
With regard to taking the blood samples from the rats and from the human beings, the blood was collected in tubes internally coated with EDTA and was then centrifuged at 3000 rpm (revolutions per minute) at ambient temperature for 45 min, and then for 15 min at a temperature of 4° C. The plasma was then collected and stored at −70° C. before analysis.
The analytical technique (LC-MS/MS for Liquid Chromatography coupled to tandem Mass Spectrometry) for measuring the active substance in the blood was based on the method described by Mata-Bilbao et al., published in 2007 in the Journal of Agricultural and Food Chemistry, volume 55, page 8857.
The free (+)-catechin was extracted from the plasma with a solution of phosphoric acid, EDTA and ascorbic acid and was then purified by SPE (solid phase extraction); in particular, it is an Oasis™ HLB extraction which is analyzed by LC-MS/MS. The quantification was carried out according to a standard calibration procedure with (+/−)-catechin-2,3,4-^13C3 as internal standard (SI).
The procedure is identical with regard to the extraction and the quantification of free quercetin or ECGC in the blood.
With regard to the extraction and quantification of the total (+)-catechin, the procedure is the same as that applied to the free (+)-catechin, with the exception of the fact that an additional step prior to the purification by SPE is carried out.
(§1) Each of the mixtures is then solubilized in water.
Each of the mixtures is solubilized in water.

[6] = format: in vivo, Wistar rats; details: IV, rats; for plasma concentration (cc) of the free monomeric (+)-catechin / plasma concentration (cc) of the total monomeric (+)-catechin: 25 mg/kg (+)-catechin equivalent
From the text: as §1

[7] = treated, 100 mg/kg by gavage for 5 days, per mg of dry weight
[8] = G3, n = 12, 100 mg intraperitoneally
[9] = oral administration, vs placebo
[10] = 25 mg/kg, rats, listed as C:Lys:HCl/1:2:2, 25 mg/kg
[11] = free (+)-catechin, rats, per os, dose equivalent to 25 mg/kg (+)-catechin, 5 Wistar rats, pulverulent mixture solubilized in water

monomeric (+)-catechin ascorbolysinate
increase in the level of incorporation [1]: +14%

monomeric (+)-catechin hydrochlorolysinate [[C:Lys:HCl/1:1:1]]
increase in the level of incorporation [1]: +15% | level of incorporation into collagen (IC) of 3H-hydroxyproline in rat skin [1, 7]: 1343 ± 48 dpm/mg | level of total incorporation (IT) of 3H-hydroxyproline in rat skin [1, 7]: 6248 ± 124 dpm/mg | HL (histamine level in the gastric mucosa) ([2]; G2, n = 12, per os twice a day (2×300 mg)): 37.91 ± 3.73 10^−6 mg/kg of protein | NU (number of animals exhibiting a gastric ulcer) ([2]; G2, n = 12, per os twice a day (2×300 mg), two days before and three days after injection): 5 | HL (histamine level in the gastric mucosa) [2, 8]: 34.98 ± 3.52 10^−6 mg/kg of protein | NU (number of animals exhibiting a gastric ulcer) [2, 8]: 6 | decrease in the histamine level (HL) in the gastric mucosa [2, 9]: −18% | decrease in the number of animals exhibiting a gastric ulcer (NU) [2, 9]: −72% | IgM level in the blood ([3]; DT + 4 months, tablet of 500 mg per day from day DT (IgM 2931 on DT)): 2417 mg/100 ml | IgM level in the blood ([3]; DT + 9 months, tablet of 500 mg per day from day DT): 2410 mg/100 ml | IgM level in the blood ([3]; DT + 15 months, tablet of 500 mg per day from day DT): 2412 mg/100 ml | status of the clear cell renal carcinoma (consultation report) [4]: complete remission

O=c1c(O)c(-c2ccc(O)c(O)c2)oc2cc(O)cc(O)c12 [QP, quercetin, reference compound]
Δct^q (difference of ct to QP, related back to QP) ([5]; Wistar, rat, in vivo, 25 mg/kg): 0%

Cl.Cl.NCCCCC(N)C(=O)O.NCCCCC(N)C(=O)O.O=c1c(O)c(-c2ccc(O)c(O)c2)oc2cc(O)cc(O)c12 [[Q:Lys:HCl/1:2:2], reference compound]
Δct^q (difference of ct to QP, related back to QP) ([5]; rat, in vivo, 25 mg/kg): +18%

Cl.Cl.Cl.Cl.Cl.NCCCCC(N)C(=O)O.NCCCCC(N)C(=O)O.NCCCCC(N)C(=O)O.NCCCCC(N)C(=O)O.NCCCCC(N)C(=O)O.Oc1cc(O)c2c(c1)O[C@H](c1ccc(O)c(O)c1)[C@@H](O)C2 [1:5:5, reference compound]
ct, calculated value ([5]; rat, in vivo, 25 mg/kg): 26 k ng min/ml

O=C(O[C@@H]1Cc2c(O)cc(O)cc2O[C@@H]1c1cc(O)c(O)c(O)c1)c1cc(O)c(O)c(O)c1 [EGCG, epigallocatechin gallate, reference compound]
plasma levels measured (below the reliable limits of detection) ([5]; EGCG, rats, per os, dose equivalent to 25 mg/kg polyphenol): below 250 ng/ml

Cl.Cl.NCCCCC(N)C(=O)O.NCCCCC(N)C(=O)O.Oc1cc(O)c2c(c1)O[C@H](c1ccc(O)c(O)c1)[C@@H](O)C2 [[C:Lys:HCl/1:2:2]]
Δct measured between the IV and PO data, free (+)-catechin ([5]; 25 mg/kg, rats, 25 mg/kg): 88% | Δct measured between the IV and PO data, total (+)-catechin ([5]; 25 mg/kg, rats, 25 mg/kg): 73% | Δct measured between the IV and PO data, free (+)-catechin [5, 10]: +88% | Δct measured between the IV and PO data, total (+)-catechin [5, 10]: +73% | total plasma concentration (ct) of the total monomeric (+)-catechin ([5]; PO, 25 mg/kg, rats): 479 585 ng min/ml | plasma concentration (cc) of the free monomeric (+)-catechin ([5]; PO, T 10 min, rats): 428 ng/mL | plasma concentration (cc) of the total monomeric (+)-catechin ([5]; PO, T 10 min, rats): 1839 ng/mL | plasma concentration (cc) of the free monomeric (+)-catechin ([5]; PO, T 30 min, rats): 1027 ng/mL | plasma concentration (cc) of the total monomeric (+)-catechin ([5]; PO, T 30 min, rats): 3780 ng/mL | plasma concentration (cc) of the free monomeric (+)-catechin ([5]; PO, T 60 min, rats): 1188 ng/mL | plasma concentration (cc) of the total monomeric (+)-catechin ([5]; PO, T 60 min, rats): 3190 ng/mL | plasma concentration (cc) of the free monomeric (+)-catechin ([5]; PO, T 120 min, rats): 767 ng/mL | plasma concentration (cc) of the total monomeric (+)-catechin ([5]; PO, T 120 min, rats): 1990 ng/mL | plasma concentration (cc) of the free monomeric (+)-catechin ([5]; PO, T 240 min, rats): 179 ng/mL | plasma concentration (cc) of the total monomeric (+)-catechin ([5]; PO, T 240 min, rats): 475 ng/mL | T (max) [5, 11]: 1 h | c (max) [5, 11]: 1200 ng/mL | total plasma concentration (ct) of the free monomeric (+)-catechin ([6]; 25 mg/kg): 87 970 ng min/ml | total plasma concentration (ct) of the total monomeric (+)-catechin ([6]; 25 mg/kg): 277 040 ng min/ml | plasma concentration (cc) of the free monomeric (+)-catechin ([6]; T 10 min): 3340 ng/mL | plasma concentration (cc) of the total monomeric (+)-catechin ([6]; T 10 min): 8066 ng/mL | plasma concentration (cc) of the free monomeric (+)-catechin ([6]; T 30 min): 991 ng/mL | plasma concentration (cc) of the total monomeric (+)-catechin ([6]; T 30 min): 2639 ng/mL | plasma concentration (cc) of the free monomeric (+)-catechin ([6]; T 60 min): 291 ng/mL | plasma concentration (cc) of the total monomeric (+)-catechin ([6]; T 60 min): 1191 ng/mL | plasma concentration (cc) of the free monomeric (+)-catechin ([6]; T 120 min): 0 ng/mL | plasma concentration (cc) of the total monomeric (+)-catechin ([6]; T 120 min, 25 mg/kg): 340 ng/mL and 338 ng/mL | plasma concentration (cc) of the free monomeric (+)-catechin ([6]; T 240 min): 0 ng/mL | plasma concentration (cc) of the total monomeric (+)-catechin ([6]; T 240 min): 0 ng/mL

Cl.Cl.Cl.NCCCCC(N)C(=O)O.NCCCCC(N)C(=O)O.NCCCCC(N)C(=O)O.Oc1cc(O)c2c(c1)O[C@H](c1ccc(O)c(O)c1)[C@@H](O)C2 [1:3:3, reference compound]
ct, calculated value ([5]; rat, in vivo, 25 mg/kg): 38 k ng min/ml

Cl.Cl.Cl.Cl.Cl.NCCCCC(N)C(=O)O.NCCCCC(N)C(=O)O.NCCCCC(N)C(=O)O.NCCCCC(N)C(=O)O.NCCCCC(N)C(=O)O.Oc1cc(O)c2c(c1)O[C@H](c1ccc(O)c(O)c1)[C@@H](O)C2.Oc1cc(O)c2c(c1)O[C@H](c1ccc(O)c(O)c1)[C@@H](O)C2 [1:2.5:2.5]
ct, value reported on the curve in FIG. 5 ([5]; rat, in vivo, 25 mg/kg): 105 k ng min/ml
